Measurements as given in patent publication US20230089267A1, “Compositions and Methods For Reducing Immune Intolerance and Treating Autoimmune Disorders” (Lapix Therapeutics, Inc., priority 2021, published 2023).
Counter-ions that a name gives are not always drawn.

What was measured:
[1] = system: FoxP3+/CD4+ T-cells in splenocytes from naïve C57BL/6 mice; test: In vitro dose-response, percent FoxP3+/CD4+ T-cells in murine splenocytes; type: cell-based; details: for EC50 / EC90: Mus musculus, T-cell, percent FoxP3+/CD4+ T-cells, 72 hours, 4-parameter log-logistic model fit; for mean FoxP3+/CD4+ T-cells, upper plateau, mean (SEM): high dose; for mean FoxP3+/CD4+ T-cells, upper plateau, mean (SEM) / mean FoxP3+/CD4+ T-cells, lower plateau, mean (SEM): from model fitting; for mean FoxP3+/CD4+ T-cells, lower plateau, mean (SEM): low dose
Method: All animal studies were conducted under IACUC number B2020-91 and in compliance with Tufts University/Tufts Medical Center & Human Nutrition Research Center on Aging. Animals were housed four in a cage and had access to food and water ad libitum. Anti-FoxP3 and anti-CD4 for flow cytometry were obtained from eBioscience. Compounds 1-3 were formulated with 10% DMPC in PBS. PS liposomes were synthesized at a 30:70 PS:lipid molar ratio.
Splenocytes from naïve C57BL/6 mice were stained with CFSE, seeded at 2×10^5 cells/well, and dosed with each compound from 1e^−4 μM to 3.0e^−9 μM using a log 2 dilution scheme. Cells were incubated for 72 hours before phenotyping for FoxP3+/CD4+ T-cells. Flow cytometer analysis was performed to assess changes in percent FoxP3+/CD4+ T-cells as a function of compound and dose. Concentration versus response was fitted to a 4-parameter, log-logistic model using the “dre” package in “R”. Both EC50 and EC90 were obtained by model fitting.
Cells were observed via a microscope at the end of the incubation period. All cells looked healthy and suitable for flow cytometry analysis.
Table 2 summarizes EC50 and EC90 values obtained from the model fitting.

passive MG model = test: Passive myasthenia gravis model, adoptive transfer to RAG2−/− mice; type: in vivo; details: by day 10, SC daily for ten days
Method: In this passive MG model in B6 mice, donor mice (n=20, aged 6-8 weeks) were immunized with complete Freund's adjuvant (CFA) and nicotinic acetylcholine receptor (AChR) emulsion weekly for four weeks. Seven days after the last immunization, splenocytes were collected, and 10^6 cells/mouse were transferred to RAG2^−/− mice. The recipient mice (n=10/group) were treated one day after adoptive transfer with prednisone (1 μg/mouse) SC daily for ten days after disease onset or Compound 2 3 μg SC daily for ten days after disease onset, or were left untreated. Minimal manifestation of disease was defined as a return to a clinical score of 1 after an exacerbation (score 2 or higher). Time to return to minimal score was logged, and the likelihood of return was plotted for untreated animals, and standard of care (SOC; prednisone)- and Compound 2-treated animals.

[2] = system: MOG35-55-induced murine EAE model; test: MOG35-55-induced murine EAE model, Compound 2 versus Compound 8 (Example 12); type: in vivo, mice; details: 3 μg/mouse/day SC, after ten days of treatment
Method: Mice were immunized with 100 μg MOG35-55 emulsified with CFA and pertussis toxin, as described in Example 4. At disease onset (clinical score 1), mice were randomized into two treatment groups, and received 3 μg/mouse/day SC of either Compound 2 or Compound 8.

[3] = system: MOG35-55-induced murine EAE model; test: Escalation treatment paradigm in MOG35-55-induced murine EAE model (Example 8); type: in vivo, mice
Method: Compound 2 (0.03 mg/ml) was formulated with hydroxypropyl beta cyclodextrin (HPCD) 1:80 (Compound 2:HPCD) and stored at 4° C. until use. Natalizumab, an anti-α4β1 integrin antibody is a monoclonal antibody that is approved by U.S. Food and Drug Administration (FDA) for the treatment of relapsing forms of MS. […] Natalizumab was diluted in PBS to a final concentration of 15 mg/ml before dosing. DMF is a disease-modifying therapy (DMT) recommended for the treatment of active relapsing multiple sclerosis. DMF (1 g) was dissolved in 50 ml of 4% solution of METHOCEL© to give a 20 mg/ml solution of DMF. The solution was stored at 4° C. until use.
Experimental autoimmune (allergic) encephalomyelitis (EAE) is considered to be the best non-clinical model of multiple sclerosis (MS). Over 6,000 papers have been published in scientific journals on this model. EAE is characterized by immune responses against CNS tissue and can be induced in animals by immunizing them against proteins of the CNS. In the active EAE model, mice are immunized with MOG35-55 peptide emulsified in Complete Freund's Adjuvant (CFA) by subcutaneous injection at the tail base (100 μg of […] per mouse) under anesthesia. On the day of injection (Day 0) and two days later (Day 2), mice receive an intraperitoneal injection of pertussis toxin (PT) in PBS at 200 ng/mouse/dose (0.1 mL). Symptoms typically develop in mice 9-14 days after immunization (Day 0). Daily observation and scoring of mice start on Day 7 and continue until the end of the study. Table 5 (see Example 4 above) details the expected clinical symptoms and the scoring criteria used in this study.
This study was designed to evaluate the early sustained use of Compound 2 versus DMF in a treatment escalation paradigm (sustained use cohort), and Compound 2 versus natalizumab after DMF failure (escalation cohort). All animals in the escalation cohorts received 14 doses of DMF or Compound 2, or 3 doses of natalizumab, as per group assignment.
Probability of disease control: Disease control was defined as a clinical score of less than 2.5. Animals in the different treatment groups were monitored after the 3:1:1 randomization. A score of 2.5 was recorded as an event and analyzed by survival analysis in GraphPad Prism 9. Animals not reaching a clinical score of 2.5 by day 14, the end of the treatment period, were assigned a score of zero for the survival analysis.
Efficacy of Compound 2 versus DMF in early sustained use: Animals in the DMF group that reached a score of 2.5 were randomized 1:1:1, as per FIG. 5A. Animals randomized to continue DMF treatment were given the remainder of the 14 DMF doses. Animals from the first randomization that were treated with Compound 2 after disease onset continued treatment for a total of 14 doses. After the 14th dose, treatment was stopped and clinical score and overall survival were monitored.
Efficacy of Compound 2 versus natalizumab in a treatment escalation cohort: Animals in the DMF group that reached a score of 2.5 were randomized 1:1:1, as per FIG. 5A. Animals randomized to natalizumab were dosed 100 μg/mouse IV every 3 days for 3 total doses starting the same day a score of 2.5 was recorded. Animals randomized to Compound 2 were dosed with 3 μg/mouse SC QD for 14 total doses starting on the same day a score of 2.5 was recorded.
Overall survival: Death due to the disease was monitored in the early sustained use cohort as well as the escalation cohort. Death by disease (clinical score of 5) was recorded as an event “1,” death due to ulceration or for ex vivo analysis was recorded as “0.” Animals surviving until the end of the study were recorded “0” on day 27. Survival analysis was done in GraphPad Prism 9.

[4] = system: MOG35-55-induced murine EAE model; test: Induction/maintenance treatment paradigm in MOG35-55-induced murine EAE model (Example 9); type: in vivo, mice
Method: Compound 2, natalizumab and DMF were prepared as described in Example 8. Table 5 (see Example 4) details the expected clinical symptoms and scoring criteria used in this study.
This study was designed to evaluate the therapeutic effects of Compound 2 versus natalizumab in a treatment induction/maintenance paradigm (induction cohort), and Compound 2 versus DMF after natalizumab (maintenance cohort). In the induction cohorts, animals were randomized 2:1:1 natalizumab:Compound 2:control when they reached a score of 2.5, as per FIG. 6A. Animals in the natalizumab cohort were given 100 μg natalizumab/mouse every 3 days for 3 doses before being randomized to the maintenance cohort. Animals randomized into the maintenance cohort after natalizumab received maintenance doses of DMF or Compound 2 (1:1 randomization), as per their group assignment for 14 days. Animals in the Compound 2 induction cohort were dosed with 30 μg Compound 2/mouse SC QD for a maximum of 7 days, or 3 consecutive days of disease score <2.5, at which time they were placed on a maintenance dose of 3 μg/mouse SC QD for 14 days. All animals in all groups were monitored for 14 days after the last dose for disease score and survival.
Disease control (induction therapy): Disease control was defined as maintaining a clinical score of 2.5 or less after randomization. Animals in the different treatment groups were monitored after the 2:1:1 randomization. Clinical scores were recorded daily for all animals and plotted over time. A score of >2.5 was recorded as an event and analyzed by survival analysis in GraphPad Prism 9. Animals not reaching a clinical score of 2.5 by the end of the induction period (day 7) were assigned a score of zero for the survival analysis.
Survival (induction therapy): Death due to disease (clinical score 5) during the treatment induction period was recorded as an event “1”, animals surviving until the end of the induction period, day 7 after randomization, were censored on day 7 for the purposes of survival analysis.
Disease control (maintenance therapy): At the end of the induction period with natalizumab, animals were randomized 1:1 to the DMF maintenance group or Compound 2 maintenance group as per FIG. 6A. Animals were dosed for 14 days, and clinical scores were monitored daily.
Survival (maintenance therapy): Death by disease (clinical score of 5) was recorded as an event “1”, death due to ulceration or ex vivo analysis was recorded as “0”. Animals surviving until the end of the study were recorded as “0” on the last day of the study. Survival analysis was done in GraphPad Prism 9.

[5] = escalation cohort after DMF failure (score 2.5), by day 14 after switching
[6] = maintenance after natalizumab induction

CCCCCC(=O)O[C@@H](COC(C)=O)CO[PH](=O)OC[C@H](N)C(=O)O (stereo partly shown) [PS, phosphatidylserine, reference compound]
EC50 [1]: 0.133 nM
EC90 [1]: 0.314 nM

N[C@@H](CNC(=O)Cc1ccc(OC(c2ccccc2)c2ccccc2)cc1)C(=O)O [Compound 3, (S)-2-amino-3-(2-(4-(benzhydryloxy)phenyl)acetamido)propanoic acid]
potency relative to PS, as measured by EC50 and EC90 ([1]; EC50 and EC90, respectively): two and one orders of magnitude higher (more potent) than PS
EC50 [1]: 3.76 nM
EC90 [1]: 20.4 nM
mean FoxP3+/CD4+ T-cells, upper plateau, mean (SEM) [1]: 3.48%
mean FoxP3+/CD4+ T-cells, lower plateau, mean (SEM) [1]: 1.32%

N[C@@H](CNC(=O)Cc1ccc(OCc2ccccc2)cc1)C(=O)O [Compound 1, (S)-2-amino-3-(2-(4-(benzyloxy)phenyl)acetamido)propanoic acid]
EC50 [1]: 2.06 nM
EC90 [1]: 688 nM
mean FoxP3+/CD4+ T-cells, upper plateau, mean (SEM) [1]: 5.18%
mean FoxP3+/CD4+ T-cells, lower plateau, mean (SEM) [1]: 1.47%

C[C@]12C=CC(=O)C=C1CC[C@@H]1[C@@H]2C(=O)C[C@@]2(C)[C@H]1CC[C@]2(O)C(=O)CO [prednisone, reference compound]
animals returned to minimal manifestation of disease (score 1) (passive MG model): 46%

N[C@@H](CNC(=O)Cc1ccc(OCc2cccc3ccccc23)cn1)C(=O)O [Compound 8, (S)-2-Amino-3-(2-(5-(naphthalen-1-ylmethoxy)pyridin-2-yl)acetamido)propanoic acid]
mean clinical score, comparison of the two groups [2]: no statistical difference

natalizumab: anti-α4β1 integrin monoclonal antibody approved by FDA for the treatment of relapsing forms of MS [reference compound]
mean clinical score after switching from DMF [3, 5]: 3.6 (SD=1.6)
median clinical score after switching from DMF [3, 5]: 3.75
animals that survived until day 27, escalation cohort ([3]; switched from DMF): 6 out of 9
mice showing clinical score improvement and switched to maintenance before end of induction period ([4]; induction period): 0/18
animals that survived the treatment induction period ([4]; induction period, day 7 after randomization): 11/18
mice that died before completing the induction therapy ([4]; induction therapy): 38.8%
mean clinical score by day 7 of induction ([4]; randomized at score 2.5, Compound 2 30 μg SC): 3.61 (SD=1.17)
animals that progressed to a clinical score >2.5 during induction ([4]; randomized at score 2.5, natalizumab 100 μg/mouse every 3 days, Compound 2 30 μg SC): 12

COC(=O)/C=C/C(=O)OC [DMF, dimethyl fumarate, reference compound]
disease course in early sustained use cohort ([3]; 14 doses, followed to end of study): progressed at the same rate as untreated control animals, with all animals reaching a clinical score of 5 by end of the study
overall survival, early sustained use cohort ([3]; to day 27): all animals in the DMF-treated group died by day 26
animals that progressed to a score of 2.5 ([3]; treatment from disease onset (score 1), within 7 days of disease onset): All animals (n=30)
mean clinical score of animals randomized to maintenance therapy after natalizumab induction ([4]; at start of maintenance): 2.5 (SD=0.4)
animals that progressed to clinical score 5 (death by disease) [4, 6]: 3 out of 4
last measured score, day 7 after initiation of maintenance [4, 6]: 4.37 (SD=1.2)
mortality rate in maintenance cohort ([4]; maintenance after natalizumab induction, n=4 in each group): 75%
